Measured values reported in patent publication US6737383B1, “Herbicidal oxadiazolidines” (priority 1999, dated 2004).

Legend:
wild oat = test: Test B pre/postemergence wild oat; type: in vivo, Avena fatua
In short: (§1)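 Response is a visual 0-to-10 score relative to untreated plants, where 0 means no effect and 10 means complete control, taken twelve to sixteen days after application. Treatments went onto soil at planting and onto foliage of 1- to 4-leaf plants, using a surfactant-containing non-phytotoxic solvent.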

morningglory = test: Test B pre/postemergence morningglory; type: in vivo, Ipomoea hederacea
In short: as §1

crabgrass = test: Test B pre/postemergence crabgrass; type: in vivo, Digitaria sanguinalis
In short: as §1

rape = test: Test B pre/postemergence rape; type: in vivo, Brassica napus
In short: as §1

purple nutsedge = test: Test B pre/postemergence purple nutsedge; type: in vivo, Cyperus rotundus
In short: as §1

pigweed = test: Test B pre/postemergence pigweed; type: in vivo, Amaranthus retroflexus
In short: as §1

soybean = test: Test B pre/postemergence soybean; type: in vivo, Glycine max
In short: as §1

wheat = test: Test B pre/postemergence wheat; type: in vivo, Triticum aestivum
In short: as §1

giant foxtail = test: Test B pre/postemergence giant foxtail; type: in vivo, Setaria faberii
In short: as §1

cocklebur = test: Test B pre/postemergence cocklebur; type: in vivo, Xanthium strumarium
In short: as §1

smallflower flatsedge = test: Test B flood test smallflower flatsedge; type: in vivo, Cyperus difformis
In short: (§2)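 Plants were grown to the 2-leaf stage before treatment with test chemical, then held in a greenhouse for twelve to sixteen days. Injury was visually rated against untreated controls on a 0–10 scale, where 0 is no effect and 10 is complete control.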

velvetleaf = test: Test B pre/postemergence velvetleaf; type: in vivo, Abutilon theophrasti
In short: as §1

corn = test: Test B pre/postemergence corn; type: in vivo, Zea mays
In short: as §1

rice = test: Test B flood test rice; type: in vivo, Oryza sativa
In short: as §2

sugar beet = test: Test B pre/postemergence sugar beet; type: in vivo, Beta vulgaris
In short: as §1

duck salad = test: Test B flood test duck salad; type: in vivo, Heteranthera limosa
In short: as §2

[1] = Postemergence, Rate 1000 g/ha, scale 0 to 10 (0 no effect, 10 complete control)
[2] = Preemergence, Rate 62 g/ha, scale of 0 to 10 where 0 is no effect and 10 is complete control
[3] = Preemergence, Rate 250 g/ha, scale 0 to 10, 0 is no effect, 10 is complete control
[4] = Preemergence, Rate 500 g/ha, scale 0 to 10 (0 no effect, 10 complete control)
[5] = Rate 125 g/ha, Postemergence, scale 0 to 10
[6] = Rate 500 g/ha, Postemergence, scale 0 to 10
[7] = Rate 1000 g/ha, Preemergence, scale 0 to 10 (0 no effect, 10 complete control)
[8] = Preemergence, Rate 125 g/ha, 0 is no effect, 10 is complete control
[9] = Rate 62 g/ha, Postemergence, scale of 0 to 10 where 0 is no effect and 10 is complete control
[10] = Rate 62 g/ha, headed Pre-emergence (flood test species), scale 0 to 10 (0 no effect, 10 complete control)
[11] = Rate 125 g/ha, Pre-emergence, flood test species, scale 0 to 10 where 0 is no effect and 10 is complete control
[12] = Rate 250 g/ha, Pre-emergence, flood-test species, scale 0 to 10, 0 is no effect, 10 is complete control
[13] = Rate 500 g/ha, headed Pre-emergence (flood test species), scale 0 to 10 (0 no effect, 10 complete control)
[14] = Rate 1000 g/ha, Pre-emergence (as headed), scale 0 to 10

CC(C)N(C(=O)n1oc(=O)n(C2CCCC(C(F)(F)F)C2)c1=O)c1ccc(F)cc1 (stereo not drawn) [Compound 184]
1: Redroot pigweed plant response rating (pigweed; [4]) | Soybean plant response rating (soybean; [9]) | Soybean plant response rating (soybean; [5]) | Cocklebur plant response rating (cocklebur; [6]) | Velvetleaf plant response rating (velvetleaf; [5]) | Plant response rating (0 to 10; 0 is no effect, 10 is complete control), Velvetleaf (velvetleaf; Rate 250 g/ha, Postemergence)
6: Morningglory plant response rating (morningglory; [5]) | Plant response rating (0 to 10; 0 is no effect, 10 is complete control), Morningglory (morningglory; Rate 250 g/ha, Postemergence) | Rape plant response rating (rape; [6]) | Redroot pigweed plant response rating (pigweed; [1]) | Sugarbeets plant response rating (sugar beet; [6])
10: Giant foxtail plant response rating (giant foxtail; [3]) | Giant foxtail plant response rating (giant foxtail; [4]) | Plant response rating, Giant foxtail (giant foxtail; [7])
3: Wild oats plant response rating (wild oat; [4]) | Rape plant response rating (rape; [1]) | Plant response rating (0 to 10; 0 is no effect, 10 is complete control), Rape (rape; Rate 250 g/ha, Postemergence) | Plant response rating (0 to 10; 0 is no effect, 10 is complete control), Soybean (soybean; Rate 250 g/ha, Postemergence) | Soybean plant response rating (soybean; [6]) | Wheat plant response rating (wheat; [1]) | Wheat plant response rating (wheat; [6]) | Giant foxtail plant response rating (giant foxtail; [1]) | Plant response rating, Cocklebur (cocklebur; [7]) | Plant response rating, Velvetleaf (velvetleaf; [7])
5: Wild oats plant response rating (wild oat; [1]) | Crabgrass plant response rating (0 to 10 scale) (crabgrass; [8]) | Velvetleaf plant response rating (velvetleaf; [6]) | Plant response rating (0 to 10; 0 is no effect, 10 is complete control), Sugarbeets (sugar beet; Rate 250 g/ha, Postemergence)
9: Morningglory plant response rating (morningglory; [1]) | Crabgrass plant response rating (crabgrass; [4]) | Plant response rating, Crabgrass (crabgrass; [7]) | Giant foxtail plant response rating (0 to 10 scale) (giant foxtail; [8])
0: Wild oats plant response rating (wild oat; [2]) | Wild oats plant response rating (wild oat; [3]) | Wild oats plant response rating (wild oat; [5]) | Plant response rating (0 to 10; 0 is no effect, 10 is complete control), Wild oats (wild oat; Rate 250 g/ha, Postemergence) | Morningglory plant response rating (morningglory; [2]) | Morningglory plant response rating (0 to 10 scale) (morningglory; [8]) | Morningglory plant response rating (morningglory; [3]) | Morningglory plant response rating (morningglory; [4]) | Morningglory plant response rating (morningglory; [9]) | Crabgrass plant response rating (crabgrass; [2]) | Crabgrass plant response rating (crabgrass; [9]) | Crabgrass plant response rating (crabgrass; [5]) | Plant response rating (0 to 10; 0 is no effect, 10 is complete control), Crabgrass (crabgrass; Rate 250 g/ha, Postemergence) | Rape plant response rating (rape; [2]) | Rape plant response rating (0 to 10 scale) (rape; [8]) | Rape plant response rating (rape; [3]) | Rape plant response rating (rape; [4]) | Rape plant response rating (rape; [9]) | Plant response rating, Rape (rape; [7]) | Nutsedge plant response rating (purple nutsedge; [1]) | Nutsedge plant response rating (purple nutsedge; [2]) | Nutsedge plant response rating (0 to 10 scale) (purple nutsedge; [8]) | Nutsedge plant response rating (purple nutsedge; [3]) | Nutsedge plant response rating (purple nutsedge; [4]) | Nutsedge plant response rating (purple nutsedge; [9]) | Nutsedge plant response rating (purple nutsedge; [5]) | Plant response rating (0 to 10; 0 is no effect, 10 is complete control), Nutsedge (purple nutsedge; Rate 250 g/ha, Postemergence) | Nutsedge plant response rating (purple nutsedge; [6]) | Redroot pigweed plant response rating (pigweed; [2]) | Redroot pigweed plant response rating (0 to 10 scale) (pigweed; [8]) | Redroot pigweed plant response rating (pigweed; [3]) | Redroot pigweed plant response rating (pigweed; [9]) | Soybean plant response rating (soybean; [2]) | Soybean plant response rating (0 to 10 scale) (soybean; [8]) | Soybean plant response rating (soybean; [3]) | Soybean plant response rating (soybean; [4]) | Plant response rating, Soybean (soybean; [7]) | Wheat plant response rating (wheat; [2]) | Wheat plant response rating (wheat; [3]) | Wheat plant response rating (wheat; [4]) | Plant response rating, Wheat (wheat; [7]) | Giant foxtail plant response rating (giant foxtail; [2]) | Giant foxtail plant response rating (giant foxtail; [9]) | Giant foxtail plant response rating (giant foxtail; [5]) | Plant response rating (0 to 10; 0 is no effect, 10 is complete control), Giant foxtail (giant foxtail; Rate 250 g/ha, Postemergence) | Cocklebur plant response rating (cocklebur; [2]) | Cocklebur plant response rating (0 to 10 scale) (cocklebur; [8]) | Cocklebur plant response rating (cocklebur; [3]) | Cocklebur plant response rating (cocklebur; [9]) | Cocklebur plant response rating (cocklebur; [5]) | Plant response rating (0 to 10; 0 is no effect, 10 is complete control), Cocklebur (cocklebur; Rate 250 g/ha, Postemergence) | S. Flatsedge plant response rating (smallflower flatsedge; Pre-emergence, Rate 1000 g/ha, scale 0 to 10 (0 no effect, 10 complete control)) | S. Flatsedge plant response rating (smallflower flatsedge; [10]) | S. Flatsedge plant response rating (smallflower flatsedge; [11]) | S. Flatsedge plant response rating (smallflower flatsedge; [12]) | S. Flatsedge plant response rating (smallflower flatsedge; Rate 500 g/ha, Pre-emergence, flood test species, scale 0 to 10 (0 no effect, 10 complete control)) | Velvetleaf plant response rating (velvetleaf; [2]) | Corn plant response rating (corn; [1]) | Corn plant response rating (corn; [2]) | Corn plant response rating (0 to 10 scale) (corn; [8]) | Corn plant response rating (corn; [3]) | Corn plant response rating (corn; [4]) | Corn plant response rating (corn; [9]) | Corn plant response rating (corn; [5]) | Plant response rating (0 to 10; 0 is no effect, 10 is complete control), Corn (corn; Rate 250 g/ha, Postemergence) | Corn plant response rating (corn; [6]) | Rice plant response rating (rice; [10]) | Rice plant response rating (rice; [11]) | Rice plant response rating (rice; [12]) | Plant response rating, Rice (rice; [13]) | Rice plant response rating (rice; [14]) | Sugarbeets plant response rating (sugar beet; [1]) | Sugarbeets plant response rating (sugar beet; [2]) | Sugarbeets plant response rating (0 to 10 scale) (sugar beet; [8]) | Sugarbeets plant response rating (sugar beet; [3]) | Sugarbeets plant response rating (sugar beet; [4]) | Ducksalad plant response rating (duck salad; [10]) | Ducksalad plant response rating (duck salad; [11]) | Ducksalad plant response rating (duck salad; [12]) | Plant response rating, Ducksalad (duck salad; [13]) | Ducksalad plant response rating (duck salad; [14])
4: Plant response rating, Wild oats (wild oat; [7]) | Redroot pigweed plant response rating (pigweed; [5]) | Soybean plant response rating (soybean; [1])
7: Morningglory plant response rating (morningglory; [6]) | Crabgrass plant response rating (crabgrass; [3]) | Plant response rating (0 to 10; 0 is no effect, 10 is complete control), Redroot pigweed (pigweed; Rate 250 g/ha, Postemergence) | Redroot pigweed plant response rating (pigweed; [6]) | Velvetleaf plant response rating (velvetleaf; [4])
2: Wild oats plant response rating (wild oat; [6]) | Plant response rating, Morningglory (morningglory; [7]) | Crabgrass plant response rating (crabgrass; [1]) | Crabgrass plant response rating (crabgrass; [6]) | Rape plant response rating (rape; [5]) | Plant response rating, Redroot pigweed (pigweed; [7]) | Wheat plant response rating (wheat; [5]) | Plant response rating (0 to 10; 0 is no effect, 10 is complete control), Wheat (wheat; Rate 250 g/ha, Postemergence) | Giant foxtail plant response rating (giant foxtail; [6]) | Cocklebur plant response rating (cocklebur; [1]) | Cocklebur plant response rating (cocklebur; [4]) | Velvetleaf plant response rating (velvetleaf; [1]) | Velvetleaf plant response rating (velvetleaf; [3]) | Plant response rating, Corn (corn; [7]) | Sugarbeets plant response rating (sugar beet; [9]) | Sugarbeets plant response rating (sugar beet; [5]) | Plant response rating, Sugarbeets (sugar beet; [7])
